What was measured:
[1] = tested on: duodenal mucosal alkaline secretion; experiment: Test C: duodenal mucosal alkaline secretion assay in barbiturate-anaesthetised rats; type: in vivo, rat; conditions: co-administration with title compounds of the Examples
Description: Duodenal Mucosal Alkaline Secretion Assay
Compounds were exposed to the duodenal mucosa in barbiturate-anaesthetised rats prepared for in situ titration of duodenal mucosal alkaline secretion, according to the methodology described by Flemström et al in Am. J. Physiol. (1982) 243, G348.

[2] = target: T1, AT2 receptor (Sus scrofa, UniProt A0A4X1W622); conditions: read-out: dissociation constant (Kd), AT2 receptor; Scatchard analysis, porcine myometrial membranes, [L]=0.057 nM
T1 sequence (A0A4X1W622 1-362): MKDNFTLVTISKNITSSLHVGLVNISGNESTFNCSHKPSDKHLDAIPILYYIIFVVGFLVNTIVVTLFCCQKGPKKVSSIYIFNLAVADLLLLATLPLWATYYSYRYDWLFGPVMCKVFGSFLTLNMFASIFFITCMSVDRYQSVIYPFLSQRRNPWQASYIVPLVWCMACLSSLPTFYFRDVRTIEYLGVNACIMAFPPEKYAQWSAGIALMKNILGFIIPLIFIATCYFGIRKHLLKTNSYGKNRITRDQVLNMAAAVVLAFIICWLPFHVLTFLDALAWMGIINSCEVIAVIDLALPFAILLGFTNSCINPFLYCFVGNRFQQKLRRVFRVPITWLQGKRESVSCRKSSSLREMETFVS
Description: Myometrial membranes were prepared from porcine uteri according to the method by Nielsen et al (Clin. Exp. Pharm. Phys. (1997) 24, 309). […] Samples were incubated at 25° C. for 1 h, and binding was terminated by filtration through Whatman GF/B glass-fiber filter sheets using a Brandel cell harvester. The filters were washed with 3×3 mL of Tris-HCl (pH 7.4) and transferred to tubes. The radioactivity was measured using a gamma counter. […] The binding data were best fitted with a one-site fit. All experiments were performed at least in triplicate.

Compound	effect of co-administration on the stimulation of mucosal alkalisation by the title compounds [1]	Kd [2] [nM]
Cc1cc(Cn2cnc3c2C[C@@H](C(=O)O)N(C(=O)C(c2ccccc2)c2ccccc2)C3)ccc1N(C)C [PD123319]	blocked	–
Asp^1-Arg^2-Val^3-Tyr^4-Ile^5-His^6-Pro^7-Phe^8 [Ang II]	–	0.7 ± 0.1

Source: patent US8357710B2, “Bicyclic angiotensin II agonists” (Vicore Pharma AB, priority 2005, dated 2013)
